Data as given in article PMC12718081 (ACS Infectious Diseases, 2025).

What was measured:
Assay type in all cases: cell-based, Schistosoma mansoni
[1] = tested on: juvenile schistosomes (21 days p.i.); experiment: XTT juvenile viability assay; conditions: 48 h; for parasite metabolic activity compared to the DMSO control group (XTT): 100 μM
Sm.TRPMPZQ Y1392A mutant = experiment: Ca2+ reporter activation assay, Sm.TRPMPZQ point mutant Y1392A; conditions: 100 μM
Protocol: This trend likely indicates a similar binding mode.
The colored cells represent the range of EC50 values for each compound based on their ability to activate the channel.
(§1) The Ca^2+ reporter assay was performed using a Fluorescence Imaging Plate Reader (FLIPR) system, as described in the Supporting Information.
(§2) Adult worm ex-vivo high-content assay
(§3) “Area” and “False Negative Rate” from the MeasureObjectSizeShape and MeasureObjectOverlap modules, respectively. These measurements were then modeled by a multilevel generalized linear statistical model. The effects of the experimental treatments on […]
(§4) The half-maximal inhibitory
(§5) Windows (GraphPad Software, Boston, MA, USA; www.graphpad.com). […]
(§6) with DMSO as a negative control. […]
(§7) reader. […] The fluorescence
(§8) Untransfected HEK293 cells were used as a control.
(§9) 10% fetal bovine serum (FBS). […]
(§10) atmosphere containing 5% CO₂. Following incubation, the growth medium was removed and […]
buffer containing 2.5 mM probenecid in HBSS (with Ca²⁺ and Mg²⁺), 20 mM HEPES, 0.3% BSA (Sigma, A7030), and 0.03% L-ascorbic acid (Sigma). Cells were incubated for 40 minutes at 37 °C and subsequently for 20 minutes at room temperature. […]
(§11) instrument (Molecular Devices). Baseline fluorescence was recorded for 20 seconds, followed by the addition of 5 µL of each drug solution, after which fluorescence was measured continuously for 250 seconds. […]

S. mansoni schistosomula = experiment: Roboworm high-content screening assay on schistosomula (motility and phenotype scores); conditions: 72 h
Protocol: All PZQ derivatives were synthesized in the racemic form and evaluated as such. The compounds were initially screened at 10 μM against S. mansoni schistosomula using the Roboworm high-content screening assay , and were declared hits or nonhits based on their effect on parasites’ motility and phenotype scores after 72 h of incubation. As none of the compounds were considered hits at this concentration, we performed a titration from 6.25 to 50 μM (Figure S27).
DMSO was included as a negative control. Compounds were considered hits if both their motility and phenotype scores were lower than −0.35 and −0.15, respectively (region delimited by the dashed lines). In red, PZQ analogues selected for further analysis.
For the collection of schistosomula, B. glabrata snails infected with S. mansoni were shed for 2 h under light at 26 °C. Cercariae were collected, mechanically transformed into schistosomula as previously described.
DMSO (0.625%, v/v) was included as a negative control. Z′ values for the assay were calculated to be 0.542 for phenotype and 0.361 for motility. […]
Auranofin (AUR) was included at 10 µM as positive control. DMSO was included as a negative control. Compounds were considered hits if both their motility and phenotype scores were lower than -0.35 and -0.15, respectively (region delimited by the […]

Sm.TRPMPZQ = experiment: Ca2+ reporter assay in antagonist mode (block of PZQ activation of Sm.TRPMPZQ); conditions: preincubation 1 nM-100 μM for 10 min, data not shown
Protocol: as §1, §2, §3, §4, §5, §6, §7, §8, §9, §10
buffer containing 2.5 mM probenecid in HBSS (with Ca²⁺ and Mg²⁺), 20 mM HEPES, 0.3% BSA (Sigma, A7030), and 0.03% L-ascorbic acid (Sigma). Cells were incubated for 40 minutes at 37 °C and subsequently for 20 minutes at room temperature. A total of seven PZQ derivatives were tested, using racemic PZQ included as a positive control on each assay plate. Drug dilutions were prepared in assay buffer without dye and probenecid and dispensed into separate flat-bottom 384-well plates. Calcium flux measurements were performed at room temperature using a […]
as §11
schistosomula after 72h of incubation using the Roboworm high-content screening assay. Auranofin (AUR) was included at 10 µM as positive control. DMSO was included as a negative control. Compounds were considered hits if both their motility and phenotype scores were lower than -0.35 and -0.15, respectively (region delimited by the […]
(1 picture or pasted object on this page, not shown here)

Compound | parasite metabolic activity compared to the DMSO control group (XTT) [1] | viability at 100 µM ([1]; Schistosoma mansoni, mean ± SD, read-out: juvenile worm viability (XTT, % residual viability)) | activity at Sm.TRPMPZQ carrying the Y1392A mutation (Sm.TRPMPZQ Y1392A mutant) | hit classification (motility and phenotype scores) (S. mansoni schistosomula; 12.5 μM) | hit classification (motility and phenotype scores) (S. mansoni schistosomula; 25 μM) | block of PZQ activation of Sm.TRPMPZQ (antagonist mode) (Sm.TRPMPZQ) | effect on parasites motility (S. mansoni schistosomula; 50 μM) | hit classification (motility and phenotype scores) (S. mansoni schistosomula; 50 μM, hit if motility < -0.35 and phenotype < -0.15)
[N-]=[N+]=Nc1ccc2c(c1)C1CN(C(=O)C3CCCCC3)CC(=O)N1CC2 (stereo not drawn) [Compound 4] | significantly decreased | 44.6% | retained residual activity | borderline | declared a hit |  |  | 
O=C(C1CCCCC1)N1CC(=O)N2CCc3ccc(-n4cc(C5=CCCCC5)nn4)cc3C2C1 (stereo not drawn) [Compound 5b] |  |  |  |  |  | failed to impact subsequent responses to PZQ |  | 
CCCc1cn(-c2ccc3c(c2)C2CN(C(=O)C4CCCCC4)CC(=O)N2CC3)nn1 (stereo not drawn) [Compound 5e] | significantly decreased |  |  |  |  |  | significant effect | did not change their phenotype score enough to be considered a hit
